# Assay results taken from patent US11613552B2, “Pharmaceutical agents, compositions, and methods relating thereto” (Alltech, Inc., priority 2017, dated 2023).
# How the values were obtained:
# Format in all cases: in vivo, mouse
# G6pc = test: QRT-PCR of G6pc mRNA in livers of Lepr^db/db mice; conditions: 25 μg selenium/kg ip daily, 52 days (FIG. 9)
# Description: Male Lepr^db/db mice (C57BL/6J strain, purchased from The Jackson Laboratory) at 38-days of age were intraperitoneally injected daily with physiological saline ([…]) containing 0.2% DMSO, Compound #50, or Compound #43 (25 μg selenium equivalent of each compound per kilogram body weight, diluted in the sterile physiological saline) for 52 days. After the treatment, livers were collected and subjected RNA analysis.
# Total RNA from saline- or selenium compound-treated Lepr^db/db mice was isolated using a Qiagen RNAeasy RNA isolation kit according to the Manufacturer's protocol. Total RNA from cultured cells was isolated using Trizol (Invitrogen) according to the manufacturer's protocol, and then incubated with DNase I to remove any potential contaminating genomic DNA. RNA samples were subjected to real-time PCR (QRT-PCR) analysis using Applied-Bioscience's RT kit and predesigned Taqman probes (Invitrogen), as described previously (Lan et al EMBO J 2003). Data were normalized by Actin B (Actb) mRNA levels in each sample, and are presented as mean±SEM of 3-5 samples.
# Glut4 = test: QRT-PCR of Glut4 mRNA in livers of Lepr^db/db mice; conditions: 25 μg selenium/kg ip daily, 52 days (FIG. 15)
# Description: Male Lepr^db/db mice (C57BL/6J strain, purchased from The Jackson Laboratory) at postnatal day 38 were intraperitoneally injected daily with physiological saline ([…]) containing 0.2% DMSO, Compound #43, or Compound #50 (25 μg selenium of each compound per kilogram body weight, diluted in sterile physiological saline) for 52 days. After treatment, livers were collected and subjected to RNA analysis.
# Total liver RNA from saline- or Compound #43-treated Lepr^db/db mice was isolated using a Qiagen RNAeasy RNA isolation kit according to the Manufacturer's protocol. Total RNA from cultured cells was isolated using Trizol (Invitrogen) according to the manufacturer's protocol, and then incubated with DNase I to remove any potential contaminating genomic DNA. RNA samples were subjected to real-time PCR analysis using Applied-Bioscience's RT kit and predesigned Taqman probes (Invitrogen), as described previously (Lan et al EMBO J 2003). Data were normalized by Actin B (Actb) mRNA levels in each sample and are presented as mean±SEM of 3-5 samples.
# Lepr^db/db mice = test: Glucose tolerance test in Lepr^db/db mice
# Description: Male Lepr^db/db mice at 38 days of age were intraperitoneally (ip) injected daily with physiological saline ([…]) containing 0.2% DMSO, Compound #C, Compound #50, Compound #68, and/or Compound #43 (25 μg selenium or sulfur equivalents of each compound per kilogram body weight, diluted in sterile physiological saline) for periods ranging from 43-90 days. Body weights of the above treated mice were recorded daily using a balance and any visible abnormal animal gross morphology and walking behavior were monitored daily. After the treatments, animals were fasted overnight and then subjected to blood glucose or HbA1c assays, glucose tolerance tests or tissue collections.
# For comparative studies of any potential anti-diabetic effects of Compounds #43, #69 and #70, male Lepr^db/db mice at 41 days of age were intraperitoneally (ip) injected daily with physiological saline ([…]) containing 0.2% DMSO, Compound #43, Compound #69, or Compound #70 (25 μg selenium of each compound per kilogram body weight, diluted in sterile physiological saline). After the treatments for 43 days, animals were fasted overnight and then subjected to blood glucose and glucose tolerance tests. After daily treatments of these compounds for 90 days, sera from these animals were collected and then subjected to blood HbA1c assays.
# Glucose tolerance tests were performed as described previously (Li et al, Int J Biol Sci 2008; 4:29-36). Briefly, overnight-fasted Lepr^db/db mice after saline or compound treatments were injected intraperitoneally with 2 grams/kg body weight of 20% D-glucose. Blood glucose levels at time 0 (immediately before the injection of glucose), 0.25, 0.5, 1 and 2 hours after injection of glucose were determined using a glucometer with a maximum glucose measurement capacity of 600 mg/dL. Because of this, blood glucose levels over 600 mg/dL were counted as 600 mg/dL in the data analysis.
smiles,measurement,setting,value
"C[Se]C[C@H]1O[C@@H](n2cnc3c(N)ncnc32)C(OC(C)=O)C1OC(C)=O (stereo partly shown) [Compound #43, Adenosine, 5′-Se-methyl-5′-selino-, 2′,3′-diacetate]",reduction of G6pc mRNA levels in the liver vs saline,G6pc,about 56%
same,increase in Glut4 mRNA expression levels in the liver,Glut4,5 fold
same,glucose tolerance (overall),Lepr^db/db mice; 25 μg selenium or sulfur/kg ip daily 2 months (FIG. 8B),dramatically improves glucose tolerance
same,glucose tolerance (overall),"Lepr^db/db mice; 25 μg selenium/kg ip daily 43 days from day 38, glucose 2 g/kg (FIG. 8A)",can almost completely restore insulin action
same,glucose tolerance (overall),Lepr^db/db mice; 25 μg selenium/kg ip daily 43 days from day 41 (FIG. 8C),can dramatically improve glucose tolerance
same,blood glucose level at 2 hr after glucose injection,"Lepr^db/db mice; FIG. 8A, 43 days treatment",almost completely back to pre-injection glucose levels
same,"blood glucose levels at 0.25, 0.5 and 1 hr after glucose injection","Lepr^db/db mice; FIG. 8A, 43 days treatment","visibly lower than saline-, Compound #C- or #50-treated mice"
same,blood glucose level at 2 hr after glucose injection,"Lepr^db/db mice; FIG. 8B, 2 months treatment",significantly lower than Compound #68-treated littermates
same,blood glucose level at 1 hour after glucose injection,"Lepr^db/db mice; FIG. 8C, 43 days treatment","significantly lower than saline-, Compound #69- or Compound #70-treated littermates"
same,blood glucose level at 2 hr after glucose injection,"Lepr^db/db mice; FIG. 8C, 43 days treatment","much lower than Saline-, Compound #69- or Compound #70-treated mice"
